Experiment [1] addresses T1, epsin 1 ENTH domain (SEQ ID NO: 1) variant C96A (Homo sapiens, UniProt Q9Y6I3, C96A).
T1 construct: The Epsin1 ENTH domain (1-158 amino acids) was subcloned; GST (C, cleaved yes); made in house; host or cells: E. coli BL21 RIL codon plus
T1 sequence (Q9Y6I3 1-158 C96A): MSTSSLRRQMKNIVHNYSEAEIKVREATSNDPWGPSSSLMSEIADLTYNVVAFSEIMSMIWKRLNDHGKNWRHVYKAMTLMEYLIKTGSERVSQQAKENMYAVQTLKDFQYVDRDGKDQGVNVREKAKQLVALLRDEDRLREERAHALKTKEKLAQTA
Put plainly: SPR equilibrium binding of epsin1 ENTH C96A to phosphoinositide-containing LUVs. The source says:
(§1) The ENTH domain was engineered to introduce a single labeling site (M10C) on the membrane binding surface while removing an endogenous Cys (C96A). We also performed the S4W mutation to suppress its residual affinity for another lipid, phosphatidylinositol-3,4,5-trisphosphate (PtdIns(3,4,5)P3) (PtdIns(4,5)P2/PtdIns(3,4,5)P3=4 for wild type and >10 for the mutant) and to enhance the overall affinity for PtdIns(4,5)P2-containing membranes (ca. 4-fold) (Table 1).
(§2) With respect to FIG. 1, an L1 sensor chip was coated with POPC/POPS/PtdIns(4,5)P2 (77:20:3) LUVs. The proteins were incubated with a given concentration of IP3 for 5 minutes before injecting into the SPR instrument. Kinetic SPR measurements were performed in 20 mM Tris-HCL, pH 7.4, containing 0.16 KCl. […] A lower concentration of DAN-eENTH was used than that of PLCδ PH because the former has much higher affinity that the latter.
(§3) All mutations (S4W, M10C, and C96A) were performed by polymerase chain reaction mutagenesis and verified by DNA sequencing. eENTH may comprise the following sequence:
E. coli BL21 RIL codon plus (Stratagene) cells were used for protein expression. Cells were grown in Luria broth media containing 100 μg/ml of ampicillin at 37° C. 0.1 mM of Isopropyl β-D-1-thiogalactopyranoside was added to induce over-expression of recombinant proteins when the OD600 reached 0.5-0.8 and cells were grown for additional 6 to 10 hours at 25° C. Cells were harvested by centrifugation and cell pellets were resuspended in 50 mM Tris-HCl buffer (pH 7.4) containing 160 mM KCl, 1 mM phenylmethanesulphonylfluoride, and 5 mM of dithiothreitol (DTT). Cells were lysed by sonication and the lysate was collected by centrifugation at 4° C. […] Purity and the concentration of the recombinant proteins were determined by sodium dodecylsulfate-polyacrylamide gel electrophoresis and bicinchoninic acid assay, respectively. The DAN labeling yield of eENTH, which was calculated as the molar ratio of DAN (determined spectrophotometrically at 391 nm using its extinction coefficient of 20,000 cm^−1 M^−1) to protein, was typically 60-70%. […]

The target in experiment [2] is T2, DAN-eENTH: epsin 1 ENTH domain variant M10C/C96A/S4W, SEQ ID NO: 2, labeled with DAN at C10 (Homo sapiens, UniProt Q9Y6I3, C96A/M10C/S4W).
T2 construct: The Epsin1 ENTH domain (1-158 amino acids) was subcloned; GST (C, cleaved yes); made in house; host or cells: E. coli BL21 RIL codon plus
T2 sequence (Q9Y6I3 1-158 S4W/M10C/C96A): T1 sequence (Q9Y6I3 1-158 C96A) with S4W, M10C
Put plainly: SPR equilibrium binding of DAN-eENTH to phosphoinositide-containing LUVs. Conditions: SPR.
Description: Provided herein is an ENTH domain of epsin1, which is linked to 2-dimethylamino-6-acyl-naphthalene (DAN). The ENTH domain contains 3 mutations, which are substitutions: M10C, C96A, and S4W. See SEQ ID NO:2. This DAN-eENTH (M10C, C96A, S4W) is an exceptional, high-affinity phosphatidylinositol-4,5-bisphosphate (PtdIns(4,5)P2)-binding protein.
as §1, §2, §3
(§4) E. coli BL21 RIL codon plus (Stratagene) cells were used for protein expression. Cells were grown in Luria broth media containing 100 μg/ml of ampicillin at 37° C. 0.1 mM of Isopropyl β-D-1-thiogalactopyranoside was added to induce over-expression of recombinant proteins when the OD600 reached 0.5-0.8 and cells were grown for additional 6 to 10 hours at 25° C. Cells were harvested by centrifugation and cell pellets were resuspended in 50 mM Tris-HCl buffer (pH 7.4) containing 160 mM KCl, 1 mM phenylmethanesulphonylfluoride, and 5 mM of dithiothreitol (DTT). Cells were lysed by sonication and the lysate was collected by centrifugation at 4° C. The GST-affinity resin (GenScript) for GST-tagged proteins or nickel-nitrilotriacetic acid resin (Qiagen, Valencia, Calif.) for His6-tagged proteins was added into the cell lysate and the mixture was gently shaken for 30 minutes at 4° C. The mixture was applied to a column and the column was washed once with 50 mM Tris-HCl buffer (pH 7.4) containing 160 mM KCl and 5 mM of DTT to reduce thiol group, and washed several times with the same buffer without DTT to remove DTT. For DAN labeling, 100 μg of acrylodan was added to the column at this stage and incubated 16 hours at 4° C. The excess acrylodan was removed by washing the column with the buffer several times. Thrombin (Invitrogen) was added to column to remove the GST tag and the mixture was incubated at 4° C. for 10 hours. The labeled protein was eluted from the column by and the collected fractions were applied to ion exchange column. Purity and the concentration of the recombinant proteins were determined by sodium dodecylsulfate-polyacrylamide gel electrophoresis and bicinchoninic acid assay, respectively. The DAN labeling yield of eENTH, which was calculated as the molar ratio of DAN (determined spectrophotometrically at 391 nm using its extinction coefficient of 20,000 cm^−1 M^−1) to protein, was typically 60-70%.
LUVs were prepared by extrusion using a 100 nm-pore membrane. GUVs were prepared by electroformation. […]

The next experiment concerns the target T3, PLCδ-PH (PLCδ PH domain) (Homo sapiens, UniProt P51178).
T3 sequence (P51178 21-130 limits assumed): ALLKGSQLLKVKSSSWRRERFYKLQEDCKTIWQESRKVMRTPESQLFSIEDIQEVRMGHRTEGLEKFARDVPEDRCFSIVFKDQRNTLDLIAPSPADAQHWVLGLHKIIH
Put plainly: SPR equilibrium binding of PLCδ-PH to phosphoinositide-containing LUVs. As to the method:
With respect to FIG. […] The proteins were incubated with a given concentration of IP3 for 5 minutes before injecting into the SPR instrument. Kinetic SPR measurements were performed in 20 mM Tris-HCL, pH 7.4, containing 0.16 KCl. […] A lower concentration of DAN-eENTH was used than that of PLCδ PH because the former has much higher affinity that the latter.
LUVs were prepared by extrusion using a 100 nm-pore membrane. GUVs were prepared by electroformation. The lipid mixture were prepared in chloroform/methanol (3:1) at a total concentration of 0.4 mg/ml, then the lipid solution was spread onto the indium-tin oxide electrode surface and the lipid was dried under vacuum to form a uniform lipid film. Vesicles were grown in a sucrose solution (350 mM) while an electric field (3V, 20 Hz frequency) was applied for 5 hour at room temperature. After 1 to […] of sucrose-loaded GUV solution was added into a well glued onto a coverslip that was placed on the microscope stage. The well contained […] of 20 mM Tris-HCl buffer, pH 7.4, with 0.16 M KCl solution. The diameter of GUVs ranged from 5 to 30 μm.

Experiment [3] has as its target T4, epsin 1 ENTH domain, wild type, SEQ ID NO: 1 (Homo sapiens, UniProt Q9Y6I3).
T4 construct: The Epsin1 ENTH domain (1-158 amino acids) was subcloned; GST (C, cleaved yes); made in house; host or cells: E. coli BL21 RIL codon plus
T4 sequence (Q9Y6I3 1-158): T1 sequence (Q9Y6I3 1-158 C96A) with A96C
The experiment is described as follows: SPR equilibrium binding of epsin1 ENTH domain (wild type) to phosphoinositide-containing LUVs. Conditions: SPR.
Description: as §1, §2
The Epsin1 ENTH domain (1-158 amino acids) was subcloned into the pGEX4T-1 vector and expressed as a […] glutathione S-transferase (GST)-tagged protein. The ENTH domain amino acid sequence is as follows:
as §4, with “Thrombin (Invitrogen) was added to column to remove the GST tag and the mixture was incubated at 4° C. for 10 hours. The labeled protein was eluted from the column by and the collected fractions were applied to ion exchange column.” left out, “60-70%. […]” for “60-70%.”

Experiment [4] has as its system NIH 3T3 cells. The experiment is described as follows: Change of plasma membrane [PtdIns(4,5)P2]s on stimulation, quantified with DAN-eENTH. In kind it is cell-based. Conditions: 1 μM insulin. How it is done: (§5) DAN-eENTH was delivered into NIH 3T3 cells by microinjection for live cell imaging and determined cellular [PtdIns(4,5)P2] by the ratiometric analysis. The green channel (FIG. 10a) representing both PtdIns(4,5)P2-bound and free DAN-eENTH illustrates that the sensor is successfully loaded into cells and randomly distributed in the cytosol, the nucleus, and the plasma membrane. […] When [PtdIns(4,5)P2]s in the PM was determined in a time-dependent manner by either single-channel 9FB) or ratiometric (FB/FG) analysis using the calibration curve (FIG. 2c or 2d), dramatic local heterogeneity of [PtdIns(4,5)P2]s was clearly visible at a given time ((FIG. 9c). […] In FIG. 7, the different angles represent different locations in the plasma membrane. […] That is, PtdIns(4,5)P2 can be locally enriched, but only transiently, in the quiescent cells. […] Also, the change in [PtdIns(4,5)P2]s was monitored in response to physiological stimuli, ATP and insulin. […]
(§6) NIH 3T3 cells were seeded into 8-well plates and grown at 37° C. in a humidified atmosphere of 95% air and 5% CO2 in Dulbecco's modified Eagle's medium (DMEM) (Invitrogen) supplemented with 10% (v/v) fatal bovine serum (Invitrogen). […] Thus, the cellular [PtdIns(4,5)P2] was determined from the observed (FB/FG) values using the in vitro calibration curve determined using POPC/POPS/PtdIns(4,5)P2 GUVs.

Experiment [5] has as its system NIH 3T3 cells. The experiment is described as follows: Cellular distribution of microinjected sensor in live cells. Conditions: FIG. 6. In kind it is cell-based. How it is done:
as §5, §6

Experiment [6] in a line: Equilibrium SPR binding to other phosphoinositide vesicles. The following applies: POPC/POPS/phosphoinositide (77:20:3) vesicles; no significant SPR response signal with injection of 1 μM protein. For orientation: In SPR one partner is held on a chip, and binding of the other changes the refractive index at the surface.
The mark [7] stands for this setting: POPC/POPS/PtdIns(3,4,5)P3 (77:20:3) LUVs, read-out: Kd for PtdIns(3,4,5)P3.
Setting [8] is: POPC/POPS/PtdIns(3,4)P2 (77:20:3) LUVs, read-out: Kd for PtdIns(3,4)P2.

These results are taken from patent US8686115B2, “Compositions and methods for quantitatively monitoring lipids” (The Board of Trustees of the University of Illinois, priority 2009, dated 2014).

Where a chain is given by its changes, count along the chain named. Names may count otherwise. Where two headings read alike, the source gives them in different places.

Usually Kd stands for the concentration at which binding is half-saturated. Consider `CCCCCCCCCCCCCCCC(=O)OC[C@H](COP(=O)(O)O[C@H]1[C@H](O)[C@@H](OP(=O)(O)O)[C@H](OP(=O)(O)O)[C@@H](OP(=O)(O)O)[C@H]1O)OC(=O)CCCCCCCCCCCCCCC` [PtdIns(3,4,5)P3, phosphatidylinositol-3,4,5-trisphosphate], for which the Kd worked out at 200 nM in experiment [1] (setting [7]), 44 nM in experiment [2] (setting [7]), 480 nM on PLCδ-PH (PLCδ PH domain) (setting [7]) and 210 nM in experiment [3] (setting [7]).
Regarding insulin, the “reduction in spatially averaged [PtdIns(4,5)P2]s in the plasma membrane” value with NIH 3T3 cells [4] is recorded as roughly 10%.
For `CCCCCCCCCCCCCCCC(=O)OC[C@H](COP(=O)(O)O[C@H]1[C@H](O)[C@@H](O)[C@H](OP(=O)(O)O)[C@@H](OP(=O)(O)O)[C@H]1O)OC(=O)CCCCCCCCCCCCCCC` [PtdIns(3,4)P2], the Kd amounted to 190 nM in experiment [1] (setting [8]), 50 nM in experiment [2] (setting [8]), 350 nM on PLCδ-PH (PLCδ PH domain) (setting [8]) and 180 nM in experiment [3] (setting [8]).

B1: DAN-eENTH: eENTH (M10C, C96A, S4W) linked via C10 to 2-dimethylamino-6-acyl-naphthalene (DAN); PtdIns(4,5)P2 sensor (conjugate)
chain: T1 sequence (Q9Y6I3 1-158 C96A) with S4W, M10C
modifications: DAN fluorophore on Cys10; Modified ENTH domain of Epsin 1.
notes: eENTH (M10C, C96A, S4W) linked via C10 to 2-dimethylamino-6-acyl-naphthalene (DAN); PtdIns(4,5)P2 sensor
Take B1: in the experiment on NIH 3T3 cells [5], the “cellular localization after microinjection” value is “mainly enriched in the plasma membrane”. For the same molecule, the Kd in experiment [6] is greater than 1000 nM.

B2: C96A/S4W (eENTH): engineered ENTH domain of epsin 1 with substitutions M10C, C96A, S4W, SEQ ID NO:2 (protein)
chain: T1 sequence (Q9Y6I3 1-158 C96A) with S4W, M10C
modifications: Modified ENTH domain of Epsin 1.
In experiment [6], B2 yielded a Kd greater than 1000 nM.

B3: Wild Type: ENTH domain of epsin 1, amino acids 1-158, SEQ ID NO:1 (protein)
chain: T1 sequence (Q9Y6I3 1-158 C96A) with A96C
modifications: ENTH domain of Epsin 1.
B3 returned a Kd in experiment [6] greater than 1000 nM.
